In US20150125904A1, “PROBE INCORPORATION MEDIATED BY ENZYMES” (Massachusetts Institute of Technology, priority 2012, published 2015):
Like-named read-outs stand apart in the source and are kept apart here.

Key:
[1] = cited from earlier work
Wild-type LplA = target: T1, Wild-type LplA (Escherichia coli, UniProt P32099); conditions: cited from earlier work
T1 construct: His6 (N); made in house; host or cells: E. coli

LAP-CFP-TM on HEK cells [2] = assay: Enzyme-catalyzed azide ligation efficiencies at the cell surface (anti-lipoic acid antibody staining); type: cell-based, human; conditions: for lipoylation of remaining LAP sites after azide labeling, relative to condition 3 (100%): 20 min azide ligation, picolyl azide 8 with W37VLplA, 8-azidooctanoic acid with wild-type LplA; for estimated extent of azide ligation: indirectly estimated from lipoylation extent, 20 min
Description: A: Labeling protocol. HEK cells expressing LAP-CFP-TM were labeled with picolyl azide 8 and W37VLplA, or 8-azidooctanoic acid and wild-type LplA, using the same exact conditions as in FIGS. 6 and 9. Thereafter, cells were washed and any remaining unmodified LAP sites were labeled under forcing conditions with lipoic acid (200 μM lipoic acid, 1 mM ATP, and 20 μM wild-type LplA for 20 min). Anti-lipoic acid antibody staining was used to quantify the extent of lipoylation, and CuAAC was performed thereafter with 20 μM Alexa Fluor® 647-alkyne, 100 μM CuSO4, and 500 μM BTTAA ligand for 5 min. Cells were imaged live. B: Representative confocal images. Results obtained using picolyl azide 8 (condition 2) are shown below results with 8-azidooctanoic acid (condition 1). A negative control with neither azide added during the LplA step is shown in the bottom row (condition 3). The Alexa Fluor® 647 channel reflects CuAAC labeling. The Alexa Fluor® 568 channel reflects anti-lipoic acid antibody labeling. The CFP channel showing LAP-CFP-TM expression is overlaid on DIC. Scale bars, 10 μm. C: Quantitation of data in (B). The mean intensities in all three channels were collected for >90 single cells for each condition. To compare the extents of lipoylation, the Alexa Fluor® 568/CFP ratios were calculated (to normalize for variations in LAP expression level), averaged, and plotted on the graph. CuAAC labeling extent was quantified in a similar way. Error bars, ±s.e.m. Due to the forcing conditions of the LplA-catalyzed lipoylation, we set condition 3 to represent 100% lipoylation extent for the cell surface LAP-CFP-TM population. By comparison, lipoylation after picolyl azide 8 labeling proceeds to 19% that of condition. Lipoylation after 8-azidooctanoic acid labeling proceeds to 37% that of condition 3. Based on these, we can indirectly estimate that picolyl azide 8 ligation proceeds to 81%, and 8-azidooctanoic acid ligation proceeds to 63%, under these conditions.
Live HEK cells were incubated with rabbit anti-lipoic acid antibody (Calbiochem) in cell growth medium at 1:300 dilution for 10 min at room temperature, followed by two washes with cell growth medium. Thereafter, cells were incubated with anti-rabbit secondary antibody conjugated to Alexa Fluor® 568 (Life Technologies) in cell growth medium at 1:300 dilution for 10 min at room temperature, followed by two washes with cell growth medium.

[3] = Kinetic analysis of the CuAAC reaction (fluorogenic click with 7-ethynyl coumarin); conditions: for improvement in initial CuAAC rate over carbocyclic analog: 10 μM CuSO4, no accelerating ligand, 2 vs 1, 4 vs 3; for effect of ring substituent on CuAAC reaction: 10 μM CuSO4, no ligand
Description: FIG. 4 is a graph illustrating in vitro analysis of CuAAC rates with chelating azides. A: A fluorogenic click reaction with 7-ethynyl coumarin was used to quantify CuAAC reaction progress. Zhou et al., JACS, 126:8862-8863 (2004). B: Various chelating azide structures tested and their CuAAC reaction yields after 10 min and 30 min. Reactions were run with 10 μM CuSO4 and no ligand (THPTA or BTTAA). C: Kinetic comparison of chelating azide 4 and its non-chelating benzyl counterpart 3 at different copper concentrations. CuAAC product was quantified using the assay in A), at 100, 40, and 10 μM CuSO4, both in the absence and presence of Cu(I) ligand THPTA. Measurements were performed in triplicate. Error bars, ±s.d.
Fluorescence was converted to coumarin triazole product quantity by comparison to standard curves, individually generated for each azide-coumarin alkyne adduct. Entries with less than 1% reaction yield (azides 1 and 3) are omitted from the plot. Measurements were performed in triplicate. Error bars, ±s.d.
General reaction conditions: 20 μM azide, 40 μM 7-ethynyl coumarin (A), and 4 mM sodium ascorbate in 100 mM sodium phosphate buffer at pH 7.4 at 25±1° C. 100 μM Tempol was added to each reaction to minimize Cu-dependent fluorescence quenching of 7-ethynyl coumarin and coumarin-triazoles. FIG. 4A.
Reactions were initiated by the addition of CuSO4: 10 μM for the azide compounds shown in FIG. 4B, and 10, 40, or 100 μM for the compounds shown in FIG. 4C. In FIG. 4C when THPTA was included, the THPTA:copper ratio was fixed at a 4:1 molar ratio. Coumarin fluorescence was recorded on a Tecan SAFIRE microplate reader at 2-min intervals for 30 min with excitation at 320 nm and emission detection at 430 nm. For each azide, the turn-on fluorescence of coumarin was correlated to % conversion to product using a calibration curve made from a mixture of known concentrations of 7-ethynyl coumarin and coumarin-triazole adduct of each azide, as follows:
Coumarin-triazole standards for azide 1, 2, 5, 6, and 7 (FIG. 4B) were generated from reacting 120 μM of each azide with 100 μM 7-ethynyl coumarin until 7-ethynyl coumarin was fully converted to the triazole adduct, using 100 μM CuSO4, 400 μM THPTA, and 4 mM sodium ascorbate. […] Such reaction mixture, now representing coumarin-triazole of a known concentration (100 μM), was then mixed with 7-ethynyl coumarin in defined ratios in the presence of 20-fold molar excess of EDTA relative to CuSO4, (which was carried over from the triazole generation reaction), to generate the calibration curve above.
Coumarin-triazole standards for azide 3 and 4 were generated from purified coumarin-triazole adducts for each azide (synthetic methods described below). Calibration curves were generated for azide 3 and 4 using coumarin-triazoles from crude reaction mixtures as described above, and found them to perform similarly to calibration curves generated from purified triazoles. FIG. 4C.

LAP-CFP-TM on HEK cells [4] = assay: Two-step cell surface protein labeling, PRIME followed by CuAAC (Alexa Fluor 647/CFP ratio); type: cell-based, human
Description: FIG. 6 is a diagram showing comparison of protein labeling signals on live cells using PRIME and CuAAC, with and without chelating azides. Two-step site-specific protein labeling was performed as in FIG. 3B above and 9 below, on HEK cells expressing LAP-tagged cyan fluorescent protein fused to the transmembrane domain of the PDGF receptor (LAP-CFP-TM). In the first step, either W37VLplA was used to target picolyl azide 8 to LAP, or wild-type LplA was used to ligate non-chelating 8-azidooctanoic acid. The efficiencies of these two ligation reactions are compared in FIG. S5. In the second step, CuAAC was performed for 5 min with Alexa Fluor® 647-alkyne and CuSO4 (10, 40, or 100 μM) in combination with either THPTA or BTTAA ligand (provided in 5-fold excess relative to the CuSO4 concentration). To quantify labeling signals, the mean Alexa Fluor® 647 and mean CFP intensities were calculated for >90 cells for each condition, ratioed to normalize for variations in LAP-CFP-TM expression level, and averaged. Error bars, ±s.e.m.
A: Two-step site-specific cell surface protein labeling protocol. In the first step, HEK cells expressing LAP-CFP-TM (TM is the transmembrane helix of the PDGF receptor) were labeled with picolyl azide 8 using W37VLplA and ATP added to the cell medium for 20 min. Alternatively, LAP-CFP-TM was labeled with non-chelating azide 8-azidooctanoic acid using wild-type LplA. In the second step, CuAAC was performed for 5 min using Alexa Fluor® 647-alkyne, various concentrations of CuSO4 (10, 40, or 100 μM), and either THPTA or BTTAA ligand added in 4-fold excess of the CuSO4. B: Representative confocal cell images for twelve different conditions (three CuSO4 concentrations, either THPTA or BTTAA ligand, and either alkyl azide or picolyl azide). For each condition, the Alexa Fluor® 647 labeling channel and the CFP channel, overlaid on DIC, are shown. Insets show the Alexa Fluor® 647 channel at higher contrast. Scale bars, 10 μm.
LplA labeling was performed with picolyl azide 8,8-azidooctanoic acid, or 10-undecynoic acid. CuAAC was performed with either alkyne, picolyl azide, or alkyl azide conjugates to Alexa Fluor® 647. A: Representative images showing labeling of LAP-CFP-TM on the surface of live HEK cells under four different conditions. CFP channels are shown, along with Alexa Fluor® 647 labeling channels normalized to the same intensity range (bottom) or not normalized (middle). LplA labeling protocol for all four conditions: 200 μM azide or alkyne substrate, 10 μM LplA (wild-type or mutant), 1 mM ATP, and 5 mM Mg(OAc)2 in cell culture medium for 20 min. […] B: Quantitation of data in (A). Average Alexa Fluor® 647/CFP intensity ratios were calculated for ˜50 single cells from each condition. […]

[5] = conjugation to LAP, previously reported

T1 sequence (P32099 2-338): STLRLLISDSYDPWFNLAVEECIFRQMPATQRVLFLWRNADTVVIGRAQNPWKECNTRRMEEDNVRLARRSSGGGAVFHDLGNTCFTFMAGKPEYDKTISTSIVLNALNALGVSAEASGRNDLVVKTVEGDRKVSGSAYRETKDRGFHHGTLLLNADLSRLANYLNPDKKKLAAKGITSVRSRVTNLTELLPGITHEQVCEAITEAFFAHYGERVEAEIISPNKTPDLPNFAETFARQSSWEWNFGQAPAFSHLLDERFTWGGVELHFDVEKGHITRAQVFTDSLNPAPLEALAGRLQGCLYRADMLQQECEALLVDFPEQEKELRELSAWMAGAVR

In the case of “6,8-difluoro-7-hydroxycoumarin [Pacific Blue]”, the “pKa of 7-OH substituent” value [1] is given as 3.7.

In the case of `O=C(O)CCCC[C@@H]1CCSS1` (racemic) [lipoic acid], the kcat (Wild-type LplA; lipoic acid ligation by wild-type LplA) is given as 0.22 s⁻¹.

In the case of `[N-]=[N+]=NCCCCCCCC(=O)O` [8-azidooctanoic acid, reference compound], the “lipoylation of remaining LAP sites after azide labeling, relative to condition 3 (100%)” value (LAP-CFP-TM on HEK cells [2]) is given as 37%, the “estimated extent of azide ligation” value (LAP-CFP-TM on HEK cells [2]) is given as 63% and the Km (Wild-type LplA; [5]) is given as 127 µM. For the same molecule, the kcat (Wild-type LplA; [5]) was 0.111 s⁻¹.

In the case of `[N-]=[N+]=NCc1ccccn1` [Azide 2, 2-azidomethylpyridine], the “improvement in initial CuAAC rate over carbocyclic analog” value [3] is reported as 43 fold.

In the case of `[N-]=[N+]=NCc1ccc(C(=O)O)cc1` [Azide 3, 4-azidomethylbenzoic acid, reference compound], the “time for CuAAC reaction to completion” value ([3]; THPTA added, 100 and 40 uM Cu) is reported as ≤ 30 min.

With `[N-]=[N+]=NCc1ccc(C(=O)O)cn1` [Azide 4, 6-Azidomethylnicotinic acid] the “improvement in initial CuAAC rate over carbocyclic analog” value [3] was 14 fold, the “time for CuAAC reaction to completion” value ([3]; THPTA absent, 100 and 40 uM Cu) was ≤ 30 min and the “time for CuAAC reaction to completion” value ([3]; THPTA added, all three copper concentrations (10, 40, 100 μM)) was ≤ 5 min.

In the case of `COc1ccnc(CN=[N+]=[N-])c1` [Azide 6, 2-Azidomethyl-4-methoxypyridine], the “effect of ring substituent on CuAAC reaction” value [3] is reported as “further accelerated the CuAAC reaction”.

For `[N-]=[N+]=NCc1cc(Cl)ccn1` [Azide 7, 2-Azidomethyl-4-chloropyridine], the “effect of ring substituent on CuAAC reaction” value [3] was “dampened the accelerating effect”.

In the case of `[N-]=[N+]=NCc1ccc(C(=O)NCCCCC(=O)O)cn1` [Picolyl azide 8, 5-(6-(Azidomethyl)nicotinamido)pentanoic acid], the “lipoylation of remaining LAP sites after azide labeling, relative to condition 3 (100%)” value (LAP-CFP-TM on HEK cells [2]) is reported as 19%, the “difference in ligation extent over 8-azidooctanoic acid ligation” value (LAP-CFP-TM on HEK cells [2]; 20 min labeling conditions) is reported as “at most 1.5 fold” and the “estimated extent of azide ligation” value (LAP-CFP-TM on HEK cells [2]) is reported as 81%. The “signal of picolyl azide ligation followed by fluorophore-alkyne relative to alkyne ligation followed by fluorophore-picolyl azide” value (LAP-CFP-TM on HEK cells [4]; 100 μM CuSO4, 500 μM THPTA, 5 min (FIG. 13)) was ~2.4 fold, the “boost of cell signal on replacement of 8-azidooctanoic acid, corrected for enzymatic ligation efficiencies” value (LAP-CFP-TM on HEK cells [4]; 10, 40, 100 μM Cu, THPTA or BTTAA, corrected) was ≤ 25 fold and the “signal relative to alkyl azide at 100 μM Cu (+THPTA), corrected value” (LAP-CFP-TM on HEK cells [4]; picolyl azide at 10 μM Cu (+THPTA)) was 1.6 fold. For the same molecule, the “signal relative to alkyl azide at 100 μM Cu, corrected value” (LAP-CFP-TM on HEK cells [4]; picolyl azide at 40 μM Cu, BTTAA) was 3.9 fold.
